The source of these data is PMC340942, “Engineered Biosynthesis of Regioselectively Modified Aromatic Polyketides Using Bimodular Polyketide Synthases” (PLoS Biology, 2004).

In data set [1] the target is T1, glucose-6-phosphate translocase (Rattus norvegicus, UniProt F7EWB7).
T1 construct: using intact male rat liver microsomes; tissue BD Gentest (Becton Dickinson); host or cells: male Sprague Dawley rat liver microsomes
T1 sequence (F7EWB7 1-429): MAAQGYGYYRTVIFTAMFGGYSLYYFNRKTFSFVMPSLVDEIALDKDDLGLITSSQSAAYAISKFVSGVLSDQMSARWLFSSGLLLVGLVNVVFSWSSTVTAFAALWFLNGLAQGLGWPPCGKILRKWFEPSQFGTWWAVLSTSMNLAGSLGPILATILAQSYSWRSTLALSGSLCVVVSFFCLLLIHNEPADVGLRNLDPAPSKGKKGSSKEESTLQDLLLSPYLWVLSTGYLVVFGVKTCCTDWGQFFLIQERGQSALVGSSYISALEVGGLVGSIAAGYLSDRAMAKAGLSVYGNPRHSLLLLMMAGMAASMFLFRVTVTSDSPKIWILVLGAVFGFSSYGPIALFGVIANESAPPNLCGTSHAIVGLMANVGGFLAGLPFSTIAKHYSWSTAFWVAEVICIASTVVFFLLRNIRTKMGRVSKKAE
Description: G6Pase activity assay in intact male rat liver microsomes (colorimetric inorganic phosphate). Type of data set: biochemical. The following applies: for Inhibition of G6Pase activity of the microsome (Figure 7B): 1 mM glucose-6-phosphate; for Inhibition of G6Pase activity: 10–50 μM range. As for the experimental part: Recently, the natural product mumbaistatin (Figure 7A) was identified as an extremely potent inhibitor (IC50 = 5 nM) of the glucose-6-phosphate translocase enzyme complex, an attractive target for the treatment of Type II diabetes ([Vertesy et al. 2001]). The core of mumbaistatin consists of an anthraquinone moiety that is related to several engineered compounds discussed in this report. For example, the carboxylic acid at position C-1 and the reduced C-9 are identical to those present in compounds DMAC, 8, and 9. We tested the inhibitory activities of some of these polyketides against glucose-6-phosphate translocase using intact male rat liver microsomes.
The integrity of the microsomes was first verified by comparing the glucose-6-phosphatase (G6Pase) activity in the presence of either glucose-6-phosphate or mannose-6-phosphate.
Male rat liver microsome (Sprague Dawley) was purchased from BD Gentest^TM (Becton Dickinson, Franklin Lakes, New Jersey, United States). Aliquots (100 μl, 2 mg/ml) in 0.25 M sucrose were stored at –80°C. Compound stock solutions were prepared in 95% ethanol and diluted with DMSO. Glucose-6-phosphate and mannose-6-phosphate were purchased from Sigma (St. Louis, Missouri, United States).
The integrity of microsomes and G6Pase activity was measured based on the colorimetric reaction of inorganic phosphate as previously reported ([Arion 1989]). The enzyme reaction was initiated by adding 3 μl of microsome to the reaction mixture, which contained 51 μl of assay buffer (50 mM HEPES, 100 mM KCl, 2.5 mM EDTA, 2.5 mM MgCl2, and 1 mM DTT at pH 7.2), 3 μl of glucose-6-phosphate (final concentration, 1 mM), and 3 μl of inhibitor sample in DMSO. The reaction mixture was incubated at room temperature, and 13 μl of reaction mixture was taken every 10 min and quenched with 117 μl of working solution (6:2:1 mixture of 0.42% ammonium molybdate tetrahydrate in 1N H2SO4, 10% SDS in water, and 10% ascorbic acid in water). The blue reduced phosphomolybdate complex is formed after incubation at 50°C for 20 min. The absorbance was measured at 820 nm.

For data set [2], the system named is human mammary adenocarcinoma MCF-7 cells. Description: Cytotoxicity against MCF-7 cells (colorimetric MTT assay). In kind it is cell-based. The following applies: MCF7, 120 h, IC50 recorded after 5 d of drug addition, read-out: IC50, cytotoxic activity against MCF-7 cells. Here is the method:
As described above, the biosynthetic engineering methods reported here have yielded practical routes for the production of several new as well as known anthraquinone compounds. Given the track record of this family of natural products as pharmacologically active molecules, compounds 3, 4, 9, and DMAC were assayed for cytotoxic activities against human mammary adenocarcinoma MCF-7 cells. Apoptosis was observed after 24 h of drug treatment, and IC50 values were recorded after 5 d of drug addition. […] Thus inserting the hydroxyl group at C-9 results in a 10-fold increase in cytotoxic activity.
The studies were performed as described by Hori et al (1993). The cells were maintained at 37°C and growth was measured with the colorimetric MTT assay after each day. The IC50 values were measured after 5 d.

Data set [3] has the same test system. Set-up: method as in Hori et al. 1993. The following applies: ref Hori et al. 1993; cited from earlier work.
Data set [4] deals with glucose-6-phosphate translocase enzyme complex. Set-up: method as in Vertesy et al. 2001. Particulars: ref Vertesy et al. 2001; cited from earlier work.
Data set [5] can be described thus: Stability of purified compounds at room temperature. In kind it is physicochemical.
Data set [6] deals with T1, glucose-6-phosphate translocase. The following applies: rat liver microsomes; reference inhibitor, source not given; read-out: IC50, chlorogenic acid used as reference in the G6Pase assay; cited from earlier work.

Converted amounts (≈) assume the structure as drawn.

Regarding `CCCCc1c(C(=O)O)c(O)cc2c1C(=O)c1c(O)cc(O)cc1C2=O` [Compound 3], in data set [1], the “Inhibition of G6Pase activity of the microsome (Figure 7B)” value (“Inhibition … (Figure 7B)” for short) is “Dose-dependent inhibition” and the “Inhibition of G6Pase activity” value was “Dose-dependent inhibition”. Also, the IC50 in data set [2] was 3.4 µg/mL (≈ 9.54 µM).
In the case of `CCCCc1cc(O)cc2c1C(=O)c1c(O)cc(O)cc1C2=O` [Compound 5, R1128b], the “IC50, cytotoxic activity against MCF-7 cells (natural products)” value in data set [3] was 9.5 µg/mL (≈ 30.4 µM).
Turning to `O=C(O)CC(O)CCC(=O)c1cccc(O)c1C(=O)c1c(C(=O)O)c(O)cc2c1C(=O)c1c(O)cccc1C2=O` (stereo not shown) [mumbaistatin], in data set [4], the IC50 was 0.005 µM.
As for `Cc1c(C(=O)O)c(O)cc2c1C(=O)c1c(O)cccc1C2=O` [DMAC, 3,8-dihydroxy-methylanthraquinone carboxylic acid, reference compound], in data set [1], the “Inhibition … (Figure 7B)” value is “No inhibition” and the “Inhibition of G6Pase activity” value is reported as “not”. Moreover, in data set [2], the IC50 came to 26.9 µg/mL (≈ 90.2 µM).
Take `CC(C)CCC1=C(c2cc(O)cc(=O)o2)C(=O)CC(O)C1` (stereo not shown) [Compound 2]: the “Stability of the purified compound” value in data set [5] was “slowly dehydrate”.
For `CCCCC1=C(c2cc(O)cc(=O)o2)C(=O)CC(O)C1` (stereo not shown) [Compound 1], the “Stability of the purified compound” value in data set [5] is reported as “slowly dehydrate”.
Take `CC(C)CCc1c(C(=O)O)c(O)cc2c1C(=O)c1c(O)cc(O)cc1C2=O` [Compound 4]: in data set [1], the “Inhibition … (Figure 7B)” value is “Dose-dependent inhibition” and the “Inhibition of G6Pase activity” value is on record as “Dose-dependent inhibition”. For the same compound, the IC50 in data set [2] worked out at 1.7 µg/mL (≈ 4.59 µM).
Turning to `Cc1c(C(=O)O)c(O)cc2c1C(=O)c1c(O)cc(O)cc1C2=O` [Compound 7, 3,6,8-trihydroxy-1-methylanthraquinone-2-carboxylic acid], in data set [1], the “Inhibition … (Figure 7B)” value was “No inhibition” and the “Inhibition of G6Pase activity” value was “not”.
Consider `O=C(/C=C/c1ccc(O)c(O)c1)O[C@@H]1C[C@](O)(C(=O)O)C[C@@H](O)[C@H]1O` [chlorogenic acid], for which the IC50 in data set [6] was 260 µM.
On to `CC(C)CCc1c(C(=O)O)c(O)cc2c1C(=O)c1c(O)cccc1C2=O` [Compound 9], for which, in data set [1], the “Inhibition … (Figure 7B)” value is reported as “Dose-dependent inhibition” and the “Inhibition of G6Pase activity” value is “Dose-dependent inhibition”. Also, the IC50 in data set [2] is 21.7 µg/mL (≈ 61.2 µM).
Turning to `CCCCc1c(C(=O)O)c(O)cc2c1C(=O)c1c(O)cccc1C2=O` [Compound 8], in data set [1], the “Inhibition … (Figure 7B)” value was “Dose-dependent inhibition” and the “Inhibition of G6Pase activity” value is reported as “Dose-dependent inhibition”.
In the case of `CC(C)CCc1cc(O)cc2c1C(=O)c1c(O)cc(O)cc1C2=O` [Compound 6, R1128c], in data set [3], the “IC50, cytotoxic activity against MCF-7 cells (natural products)” value is 6.2 µg/mL (≈ 19 µM).
